The source of these data is patent US20100261642A1, “NUTRITIONAL FORMULATION WITH HIGH ENERGY CONTENT” (N.V. NUTRICIA, priority 2007, published 2010).

This assay relates to intestinal epithelial cell lines T84. Nature of the assay: IL-4 mediated barrier disruption in T84 monolayers (flux and transepithelial resistance). Type of assay: cell-based, human. Conditions: for protective effect on IL-4 mediated barrier destruction (4 kD dextran flux), FIG. 1: 10 μM and 100 μM, time and dose dependent; for effect on IL-4 mediated barrier disruption (flux), in words: 100 μM, Table 1 summary, compared to control. The method, then: Monolayers (MC) of intestinal epithelial cell lines T84 (ATCC, USA) were cultured on transwell filters (Corning, Costar BV, The Netherlands) allowing both mucosal and serosal sampling and stimulation of human intestinal epithelial cells. Two weeks post confluency the monolayers were incubated in the presence of IL-4 (2 ng/ml, serosal compartment, Sigma, USA) with or without polyunsaturated fatty acids ARA, DHA, GLA, EPA, or control palmitic acid (10 μM or 100 μM, mucosal compartment, Sigma, St. Louis, USA). Cells were pre-incubated with ARA, DHA, EPA, or palmitic acid for 48 hr prior to the IL-4 incubation. The co-incubation of PUFA's and palmitic acid with IL-4 was continued for another 48 hr; while culture medium and additives were changed every 24 hr. The epithelial barrier function was determined by measuring the transepithelial resistance (TER) and permeability.

With `CCCCC/C=C\C/C=C\C/C=C\C/C=C\CCCC(=O)O` [ARA, arachidonic acid], the “protective effect on IL-4 mediated barrier destruction (4 kD dextran flux), FIG. 1” value was “protect against IL-4 mediated barrier disruption” and the “effect on IL-4 mediated barrier disruption (flux), in words” value is given as “inhibit the increased flux caused by IL-4”.
Regarding `CC/C=C\C/C=C\C/C=C\C/C=C\C/C=C\C/C=C\CCC(=O)O` [DHA, docosahexaenoic acid], the “IL-4 Flux” value (100 μM fatty acid, mucosal, IL-4 2 ng/ml, serosal, 48 hr pre-incubation + 48 hr co-incubation, permeability (4 kD dextran flux)) is on record as 271. For the same compound, where the note is “100 μM fatty acid, mucosal, IL-4 2 ng/ml, serosal, 48 hr pre-incubation + 48 hr co-incubation, transepithelial resistance”, the “IL-4 TER” value is reported as 547.
Take `CCCCC/C=C\C/C=C\C/C=C\CCCCC(=O)O` [GLA]: the “protective effect on IL-4 mediated barrier destruction (4 kD dextran flux), FIG. 1” value was “protect against IL-4 mediated barrier disruption”.
Consider `CCCCCCCCCCCCCCCC(=O)O` [Palmitic acid, palmitic acid, reference compound], for which the “effect on IL-4 mediated barrier disruption (flux), in words” value is on record as “detrimental effect”.
